Data published in PMC12094946, “Evidence of focusing the MHC class I immunopeptidome by tapasin” (Frontiers in Immunology, 2025).

Tests used:
[1] = target: HLA-B*44:02 (Homo sapiens, UniProt P01889, A223V/A65T/A93T/A95T/D201E/D98Y/E176V/E187L/E204Q/E69K/G107R/H137Y/K202T/L105A/L119I/N104T/N87E/Q56L/Q94N/R106L/R155S/R180D/S101N/S121R/S35A/S48T/T118I/V36M/W191S/Y140D/Y91S); assay: Immunopeptidome analysis (W6/32 isolation, LC-MS/MS) of 721.220 cells reconstituted with human tapasin; type: cell-based; conditions: sheet Overlaps; 1/0 flag; 5% peptide FDR
Protocol: (§1) Approximately 5x10^8 cells were grown for each cell line, and cell pellets were snap frozen. Cell lysis and MHC-I peptide isolation were performed as previously described in detail ([30]). Briefly, cell pellets were lysed by cryomilling and incubation in a non-denaturing lysis buffer (0.5% Igepal CA-630, 50 mM Tris pH 8.0, 150 mM NaCl, 1 x Roche Complete protease inhibitor cocktail). MHC-I complexes were captured from the lysate using 7.5 mg of anti-MHC-I antibody, W6/32, immobilized on protein A Sepharose and subsequently dissociated with 10% acetic acid. The peptides were fractionated and separated from β2m and heavy chain components by reversed-phase high performance liquid chromatography (RP-HPLC). The peptide containing fractions were concentrated and chromatographically distant fractions were combined to generate nine pools, reconstituted in 15 µL 0.1% formic acid containing 500 fmol iRT reference peptides ([31]). Pools were analyzed by liquid chromatography-tandem mass spectrometry (LC-MS/MS) using a SCIEX 5600+ mass spectrometer, equipped with a NanoUltra cHiPLC system (Eksigent) and a Nanospray III ion source. Peptides were trapped on a cHiPLC trap column (3 µm, ChromXP C18CL, 120 Å, 0.5 mm x 200 µm), by loading at 5 µL/min in 0.1% formic acid, 2% acetonitrile, prior to elution over a cHiPLC column (3 µm, ChromXP C18CL, 120 Å, 15 cm x 75 µm) at 300 nL/min with increasing acetonitrile over 75 minutes. The mass spectrometer was operated as follows: ion spray voltage 2400 V, curtain gas 25 l/min, ion source gas 20 l/min, interface heater temperature 150°C, MS1 range 200-1800, MS1 accumulation time 200 ms, MS2 range 60-1800, and MS2 accumulation time 150 ms. The top 20 ions meeting the following criteria were selected for MS/MS fragmentation with rolling collision energy: >200 Da, charge state +2 to +5, >40 cps, dynamic exclusion 30 seconds after two occurrences. Mass spectra were interpreted by database search against the Uniprot/SwissProt ([32]) reviewed human proteome accessed October 2018 using PEAKS Studio XPRO (10.6 build, Bioinformatics Solutions Inc.) and a contaminant database contain the iRT reference peptide sequences using the following parameters: Instrument Triple TOF, fragmentation CID, parent mass error tolerance 25ppm, fragment mass error tolerance 0.1Da, enzyme none, digest mode unspecific, variable modifications Oxidation (M) +15.99 and Deamidation (NQ) +0.98, max variable modifications per peptide 3, False discovery rate (FDR) estimation enabled. A 5% peptide FDR was applied. Peptides identified from similar isolations of MHC class II from closely related 721.221 derived cell lines were excluded from downstream analyses.

[2] = target: HLA-B*44:05 (Homo sapiens, UniProt P01889, A223V/A65T/A93T/A95T/D201E/D98Y/E176V/E187L/E204Q/E69K/G107R/H137Y/K202T/L105A/L119I/N104T/N87E/Q56L/Q94N/R106L/R155S/R180D/S101N/S121R/S35A/S48T/T118I/V36M/W191S/Y91S); assay: as above; type: cell-based; conditions: sheet Overlaps; 1/0 flag; 5% peptide FDR
Protocol: as §1

[3] = system: HLA-B*44:05-W147A; assay: as above; type: cell-based; conditions: sheet Overlaps; 1/0 flag; 5% peptide FDR
Protocol: as §1

[4] = target: HLA-A*02:01-fos (Homo sapiens, UniProt P04439, D140Y/D185E/D98H/E176V/E277Q/G131W/G231S/I119V/I121R/I166T/I218V/L300P/L318F/N151K/N90K/P208A/P217A/Q86G/Q94H/R138H/R169H/T345S); assay: In vitro peptide competition experiments (fluorescence polarization)

| Substance | B4402 (peptide identified in immunopeptidome) [1] | B4405 (peptide identified in immunopeptidome) [2] | B4405 W147A (peptide identified in immunopeptidome) [3] | fold lower than unlabeled FLPSDCFPSV ([4]; index peptide IC50 compared with IC50 of unlabeled FLPSDCFPSV) | IC50 value of the index peptide ([4]; suggested by the divergent effects of TAPBPR on the ability of peptides to compete for binding to HLA-A*02:01) |
| --- | --- | --- | --- | --- | --- |
| AEDALHNLDRKW [peptide identified within the immunopeptidomes] | 1 | 1 | 0 |  |  |
| FLPSDC^TAMRAFPSV |  |  |  | approximately 20 fold | around 3 µM |
| AEMDGAAAAKQVM [peptide identified within the immunopeptidomes] | 1 | 1 | 0 |  |  |

More lines, main results first:

| B4402 (peptide identified in immunopeptidome) [1] | B4405 (peptide identified in immunopeptidome) [2] | Substance | B4405 W147A (peptide identified in immunopeptidome) [3] | fold lower than unlabeled FLPSDCFPSV ([4]; index peptide IC50 compared with IC50 of unlabeled FLPSDCFPSV) | IC50 value of the index peptide ([4]; suggested by the divergent effects of TAPBPR on the ability of peptides to compete for binding to HLA-A*02:01) |
| --- | --- | --- | --- | --- | --- |
| 1 | 1 | EEVDLSKDIQHW [peptide identified within the immunopeptidomes] | 0 |  |  |
| 1 | 0 | SELALESQTKTY [peptide identified within the HLA-B*44:02 immunopeptidome] | 0 |  |  |
| 1 | 1 | AEIGEGAYGKVF [peptide identified within the immunopeptidomes] | 0 |  |  |
